The results in this text go back to US20190059368A1, “3,5-DIMETHOXYSTILBENE ANALOGS AND USES THEREOF” (The United States of America, as represented by the …, priority 2017, published 2019).

For one test, the system named is Colletotrichum acutatum. Put plainly: Direct bioautography, antifungal. The format is cell-based. To be noted: Colletotrichum acutatum; 2 mM; 4 μl spotted (2 μl of the positive controls); average of 2 assays; read-out: zones of inhibition. As for the experimental part: (§1) The analogs were tested for activity against Colletotrichum acutatum SIMMONDS, C. fragariae BROOKS, and C. gloeosporioides (PENZ) PENZ & SACC. in Penz., using a direct bioautography method as previously described by Tabanca et al. (Nat. Prod. Commun. 2008, 3, 1073) and Wang, et al. (J. Agric. Food Chem. 2013, 61, 4551). Technical grade commercial fungicide standards benomyl, cyprodinil, azoxystrobin, and captan were used at 0.9-1.61 μg/μl concentrations in 95% EtOH. After sample application, each TLC plate was subsequently sprayed with a spore suspension (3.0×10^5 spores/ml) of the fungus of interest and incubated in a moisture chamber for 4 days at 26° C. with a 12 hour photoperiod. Clear zones of fungal growth inhibition on the TLC plate indicated the presence of antifungal constituents in each extract or pure compound. The test compounds were prepared at 2 mM soln. in 95% EtOH, and 4 μl were spotted on the plates (2 μl of the positive controls).

For a further test, the system named is C. gloeosporioides. Nature of the test: Direct bioautography, antifungal. The format is cell-based, Colletotrichum gloeosporioides. To be noted: Colletotrichum gloeosporioides; 2 mM; 4 μl spotted (2 μl of the positive controls); average of 2 assays; read-out: zones of inhibition. As for the experimental part: as §1
In a further test the test system is Colletotrichum species. Nature of the test: Direct bioautography, antifungal (overall statement). The format is cell-based, Colletotrichum sp. As for the experimental part: as §1
The test system of a further test is C. fragariae. Put plainly: Direct bioautography, antifungal. The format is cell-based, Colletotrichum fragariae. The following applies: Colletotrichum fragariae; 2 mM; 4 μl spotted (2 μl of the positive controls); average of 2 assays; read-out: zones of inhibition. As for the experimental part:
as §1

Structures are written as SMILES.

`COc1cc(/C=C\c2ccccc2)cc(OC)c1C` [Compound 7a, (Z)-1,3-dimethoxy-2-methyl-5-styrylbenzene]: the zone of inhibition at 2000 µM stood at 8 mm with Colletotrichum acutatum, 7 mm with C. gloeosporioides and 6.5 mm in the test with C. fragariae. Further, the “inhibitory effect on Colletotrichum species (in words)” value in the test with Colletotrichum species was “strong inhibitory effect”.
